The target in the assay is T1, human calcium receptor (Homo sapiens, UniProt P41180).
T1 construct: expressed in transfected cells; host or cells: HEK293
T1 sequence (P41180 20-1078): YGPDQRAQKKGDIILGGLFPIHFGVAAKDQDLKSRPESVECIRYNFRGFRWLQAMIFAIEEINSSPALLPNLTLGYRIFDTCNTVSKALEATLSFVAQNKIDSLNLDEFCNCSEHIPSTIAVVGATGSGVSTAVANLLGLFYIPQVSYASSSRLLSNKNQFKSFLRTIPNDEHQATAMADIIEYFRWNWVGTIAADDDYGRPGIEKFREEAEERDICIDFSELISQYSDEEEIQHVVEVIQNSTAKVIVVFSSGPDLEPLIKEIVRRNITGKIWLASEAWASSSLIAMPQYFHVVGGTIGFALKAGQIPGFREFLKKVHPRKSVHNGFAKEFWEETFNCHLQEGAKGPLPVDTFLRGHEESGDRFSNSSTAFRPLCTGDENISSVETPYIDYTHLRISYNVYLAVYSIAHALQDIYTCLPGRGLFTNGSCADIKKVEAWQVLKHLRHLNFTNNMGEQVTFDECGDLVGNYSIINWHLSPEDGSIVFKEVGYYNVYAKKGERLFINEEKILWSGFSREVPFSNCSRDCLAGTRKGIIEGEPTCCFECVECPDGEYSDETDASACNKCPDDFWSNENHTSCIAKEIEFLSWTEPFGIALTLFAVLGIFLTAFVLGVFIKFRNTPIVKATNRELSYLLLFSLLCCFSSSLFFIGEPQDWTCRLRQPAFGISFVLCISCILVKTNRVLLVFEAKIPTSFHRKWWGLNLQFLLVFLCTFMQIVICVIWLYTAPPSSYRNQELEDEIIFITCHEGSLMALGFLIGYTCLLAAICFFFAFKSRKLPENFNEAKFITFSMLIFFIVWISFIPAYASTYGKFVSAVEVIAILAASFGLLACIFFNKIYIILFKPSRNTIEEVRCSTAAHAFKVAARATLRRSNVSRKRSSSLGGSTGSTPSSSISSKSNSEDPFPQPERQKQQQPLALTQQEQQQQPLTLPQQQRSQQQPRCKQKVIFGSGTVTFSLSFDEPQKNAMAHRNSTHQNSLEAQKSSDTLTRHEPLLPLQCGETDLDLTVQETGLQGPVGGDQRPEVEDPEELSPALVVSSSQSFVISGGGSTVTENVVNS
Description: Activity on calcium receptors: fluo-3 fluorescence in HEK293 cells transfected with human calcium receptor gene. The settings on record: HEK293 cells transfected with plasmid pHuPCaR4.0 (human calcium receptor gene), loaded with fluo-3; 1 mM CaCl2, 1 mM MgCl2. The assay is classed as cell-based. The procedure:
The activities of the compounds of the present invention on calcium receptors were measured. The measurement was performed in accordance with the method described in Example 4 of Nemeth et al., PCT/US95/13704 (International Publication No. WO96/12697). In brief, HEK293 cells were transfected with a plasmid pHuPCaR4.0 containing a human calcium receptor gene and loaded with fluo-3. The loading was carried out by incubating the cells at 37° C. for 1 hour in Dulbecco's modified Eagle's medium which contained about 5 μM of fluo-3/AM and had been buffered with 20 mM HEPES. Next, the cells were rinsed with Hank's balanced salt solution which contained 1 mM CaCl2 and 1 mM MgCl2 and had been buffered with 20 mM HEPES. Then each test compound was added to the cells and the fluorescence was measured with the use of an excitation wavelength of 485 nm and an emission wavelength of 540 nm.

The structures appear in SMILES notation.

For the compound `CC(NCCCOc1ccc2[nH]ccc2c1)c1cccc2ccccc12` (centres unmarked) [Compound 112], the concentration for a half-maximal effect (EC50) worked out at 78 nM.

`COc1cccc(C(C)NCCCOc2ccc(Br)cc2)c1` (centres unmarked) [Compound K-2003]: the 50% effective concentration (EC50) is 290 nM. With `COc1cccc(C(C)NCCCCOc2ccc(Br)cc2)c1` (centres unmarked) [Compound K-2004] the figure was 420 nM; with `COc1cccc(C(C)NCCCCCOc2ccc(Br)cc2)c1` (centres unmarked) [Compound K-2005], 430 nM; with `COc1cccc(C(C)NCCCCCCOc2ccc(Br)cc2)c1` (centres unmarked) [Compound K-2006], 770 nM. With `COc1cccc([C@@H](C)NCCCCCCCOc2ccc(Br)cc2)c1` [Compound K-2007] the figure was 470 nM; with `COc1cccc(C(C)NCCSc2cccc(C(F)(F)F)c2)c1` (centres unmarked) [Compound K-2008], 860 nM; with `COc1cccc(C(C)NCCCCSc2cccc(C(F)(F)F)c2)c1` (centres unmarked) [Compound K-2010], 140 nM. With `COc1cccc([C@@H](C)NCCCCCSc2cccc(C(F)(F)F)c2)c1` [Compound K-2011] the figure was 210 nM; with `COc1cccc(C(C)NCCCCCCSc2cccc(C(F)(F)F)c2)c1` (centres unmarked) [Compound K-2012], 870 nM. Turning to `COc1cccc(C(C)NCCSc2ccccc2Br)c1` (centres unmarked) [Compound K-2015], the EC50 was 490 nM.

`COc1cccc(C(C)NCCCSc2ccccc2Br)c1` (centres unmarked) [Compound K-2016]: the EC50 was determined as 360 nM. With `COc1cccc(C(C)NCCCCSc2ccccc2Br)c1` (centres unmarked) [Compound K-2017] the figure was 360 nM; with `COc1cccc(C(C)NCCCCCSc2ccccc2Br)c1` (centres unmarked) [Compound K-2018], 330 nM. The result for `CC(NCCOc1cccc(Cl)c1)c1cccc2ccccc12` (centres unmarked) [Compound K-2030] reads 49 nM; that for `COc1cccc(C(C)NCCCCSc2ccc([N+](=O)[O-])cc2)c1` (centres unmarked) [Compound K-2033], 350 nM. Consider `COc1cccc(C(C)NCCCCCSc2ccc([N+](=O)[O-])cc2)c1` (centres unmarked) [Compound K-2034], for which the EC50 was 61 nM. With `COc1cccc(C(C)NCCCCCCSc2ccc([N+](=O)[O-])cc2)c1` (centres unmarked) [Compound K-2035], the EC50 turned out to be 220 nM. With `COc1cccc(C(C)NCCCCSc2ccc(F)cc2)c1` (centres unmarked) [Compound K-2040] the figure was 80 nM. With `COc1cccc(C(C)NCCCCCSc2ccc(F)cc2)c1` (centres unmarked) [Compound K-2041] the figure was 100 nM. The result for `COc1cccc(C(C)NCCSc2cccc(Br)c2)c1` (centres unmarked) [Compound K-2045] reads 870 nM; that for `COc1cccc(C(C)NCCCSc2cccc(Br)c2)c1` (centres unmarked) [Compound K-2046], 140 nM; that for `COc1cccc(C(C)NCCCCSc2cccc(Br)c2)c1` (centres unmarked) [Compound K-2047], 130 nM.

Take `COc1cccc(C(C)NCCCCCSc2cccc(Br)c2)c1` (centres unmarked) [Compound K-2048]: the EC50 is 730 nM. The result for `COc1cccc(C(C)NCCCCCCSc2cccc(Br)c2)c1` (centres unmarked) [Compound K-2049] reads 830 nM; that for `COc1cccc(C(C)NCCCCCCCSc2cccc(Br)c2)c1` (centres unmarked) [Compound K-2050], 550 nM.

For `COc1cccc(C(C)NCCCCCCCCSc2cccc(Br)c2)c1` (centres unmarked) [Compound K-2051], the EC50 amounted to 340 nM. With `COc1cccc(C(C)NCCCSc2ccc(C(F)(F)F)cc2)c1` (centres unmarked) [Compound K-2055] the figure was 57 nM; with `COc1cccc(C(C)NCCCCSc2ccc(C(F)(F)F)cc2)c1` (centres unmarked) [Compound K-2056], 39 nM. Take `COc1cccc([C@@H](C)NCCCCCSc2ccc(C(F)(F)F)cc2)c1` [Compound K-2057]: the EC50 amounted to 410 nM. The result for `COc1cccc(C(C)NCCCCCCSc2ccc(C(F)(F)F)cc2)c1` (centres unmarked) [Compound K-2058] reads 390 nM; that for `COc1cccc(C(C)NCCCCCCCSc2ccc(C(F)(F)F)cc2)c1` (centres unmarked) [Compound K-2059], 270 nM; that for `COc1cccc(C(C)NCCCSc2cccc(Cl)c2)c1` (centres unmarked) [Compound K-2061], 150 nM. The result for `COc1cccc([C@@H](C)NCCSc2cc(Cl)ccc2Cl)c1` [Compound K-2066] reads 260 nM; that for `CC(NCCCCCSc1ccccc1Br)c1cccc2ccccc12` (centres unmarked) [Compound K-2075], 140 nM. With `C[C@@H](NCCCCCSc1ccc(C(F)(F)F)cc1)c1cccc2ccccc12` [Compound K-2076, N-[(1R)-1-(1-naphthyl)ethyl]-N-(5-{[4-(trifluoromethyl)phenyl]thio}pentyl)amine] the figure was 6200 nM; with `COc1cccc(C(C)NCCCSc2ccc(Cl)c(Cl)c2)c1` (centres unmarked) [Compound K-2078], 170 nM. With `COc1cccc(C(C)NCCCCSc2ccc(Cl)c(Cl)c2)c1` (centres unmarked) [Compound K-2079], the EC50 turned out to be 200 nM. `COc1cccc(C(C)NCCCCCSc2ccc(Cl)c(Cl)c2)c1` (centres unmarked) [Compound K-2080]: the EC50 is 770 nM.

With `COc1cccc(C(C)NCCCCCCCSc2ccc(Cl)c(Cl)c2)c1` (centres unmarked) [Compound K-2082], the EC50 was found to be 2810 nM.

As for `COc1cccc(C(C)NCCCSc2c(Cl)cccc2Cl)c1` (centres unmarked) [Compound K-2084], the EC50 worked out at 120 nM. The result for `COc1cccc(C(C)NCCCCSc2c(Cl)cccc2Cl)c1` (centres unmarked) [Compound K-2085] reads 130 nM.

Take `C[C@@H](NCCSc1cc(Cl)ccc1Cl)c1cccc2ccccc12` [Compound K-2117, (R)-N-[1-(1′-naphthyl)ethyl]-2-(2′,5′-dichlorophenylthio)ethylamine]: the 50% effective concentration (EC50) was determined as 43 nM.

Turning to `CC(NCCC(=O)N(Cc1ccccc1)Cc1ccccc1)c1cccc2ccccc12` (centres unmarked) [Compound K-2177], the EC50 was 75 nM. With `C[C@@H](NCCC(=O)N(Cc1ccc(Cl)cc1)Cc1ccc(Cl)cc1)c1cccc2ccccc12` [Compound K-2243, N1,N1-di(4-chlorobenzyl)-3-{[(1R)-1-(1-naphthyl)ethyl]amino}propanamide] the figure was 92 nM. On to `C[C@@H](NCCCCSc1ccc(C(F)(F)F)cc1)c1cccc2ccccc12` [Compound K-2246, N-[(1R)-1-(1-naphthyl)ethyl]-N-(4-{[4-(trifluoromethyl)phenyl]thio}butyl)amine], for which the EC50 was determined as 120 nM.

Regarding `C[C@@H](NCCC(=O)N(Cc1ccccc1)Cc1ccc2ccccc2c1)c1cccc2ccccc12` [Compound K-2248], the EC50 amounted to 78 nM. The result for `CC(NCCC(=O)N(Cc1ccccc1)Cc1ccccc1Cl)c1cccc2ccccc12` (centres unmarked) [Compound K-2249] reads 82 nM; that for `CC(NCCC(=O)N(Cc1ccccc1)Cc1ccc(Cl)cc1Cl)c1cccc2ccccc12` (centres unmarked) [Compound K-2251], 51 nM.

For `C[C@@H](NCCC(=O)N(Cc1ccccc1)Cc1cccc(Cl)c1)c1cccc2ccccc12` [Compound K-2252], the 50% effective concentration (EC50) came out at 18 nM.

For `CC(NCCC(=O)N(Cc1cccc(Cl)c1)Cc1cccc(Cl)c1)c1cccc2ccccc12` (centres unmarked) [Compound K-2253], the EC50 came to 190 nM. With `CC(NCCC(=O)N(Cc1ccccc1Cl)Cc1ccccc1Cl)c1cccc2ccccc12` (centres unmarked) [Compound K-2254] the figure was 88 nM; with `CC(NCCC(=O)N(Cc1ccc(F)cc1)Cc1ccc(F)cc1)c1cccc2ccccc12` (centres unmarked) [Compound K-2256], 180 nM; with `C[C@@H](NCCC(=O)N(Cc1ccc(OC(F)(F)F)cc1)Cc1ccc(OC(F)(F)F)cc1)c1cccc2ccccc12` [Compound K-2257, N1,N1-di[4-(trifluoromethoxy)benzyl]-3-{[(1R)-1-(1-naphthyl)ethyl]amino}propanamide], 39 nM. The result for `C[C@@H](NCCC(=O)N(Cc1ccc(C(F)(F)F)cc1)Cc1ccc(C(F)(F)F)cc1)c1cccc2ccccc12` [Compound K-2259, N1,N1-di[4-(trifluoromethyl)benzyl]-3-{[(1R)-1-(1-naphthyl)ethyl]amino}propanamide] reads 2.4 nM; that for `CC(NCCC(=O)N(Cc1ccc(Cl)cc1)Cc1cccc(Cl)c1)c1cccc2ccccc12` (centres unmarked) [Compound K-2261], 26 nM.

For the origin of these results see patent publication US7816408B2, “Calcium receptor active compounds” (NPS Pharmaceuticals, Inc., priority 2002, dated 2010).
